System: Glucose-6-phosphat-Dehydrogenase
Experiment: Conversion of different hexoses by glucose-6-phosphate dehydrogenase in the presence of NADP+ (photometric)
Format: biochemical
Conditions: Hexose 50 mmol/l, G6P-DH 10 U/ml, NADP+ added, 37 °C, 340 nm, ca. 40 min, Imidazol·HCl pH 6,6
Description: Beispiel 1: Umsetzung verschiedener Hexosen mit Glucose-6-phosphat-Dehydrogenase in Gegenwart von NADP^+
Testansatz: Es wurden in einer Küvette mit einer Schichtdicke von 1 cm jeweils 1,0 ml Reagenz A mit 0,1 ml Reagenz B vermischt und mit einem Spektralphotometer bei 37 °C und 340 nm der Extinktionsverlauf über ca. 40 min verfolgt.

Row | Compound | NADPH-Bildung (Extinktionsverlauf)
1 | O=C(CO)[C@@H](O)[C@H](O)[C@H](O)CO [Fructose] | keine Extinktionsveränderung meßbar
2 | Glucose [reference compound] | signifikante NADPH-Bildung
3 | Mannose | keine Extinktionsveränderung meßbar
